Laboratory results published in patent US20120231073A1, “DEXLANSOPRAZOLE COMPOSITIONS” (DR. REDDY'S LABORATORIES, INC., priority 2008, published 2012).

Assays:
[1] = Particle size distribution using a Malvern instrument; format: physicochemical
From the text: The D10, D50, and D90 values are useful ways for indicating a particle size distribution. D90 is the size value where at least 90 volume percent of the particles have a size smaller than the said value; Likewise D10 refers to 10 volume percent of the particles having a size smaller than the said value. D50 refers to at least 50 volume percent of the particles having a size smaller than the said value and D[4,3] value refers to the mean particle size. Methods for determining D10, D50 D90 and D[4,3] include laser light diffraction, such as using equipment sold by Malvern Instruments Ltd., Malvern, Worcestershire, United Kingdom. Other types of equipment may be used, as is known in the art.
The premixes of Example 1 and Example 2 are analyzed for particle size distribution using a Malvern instrument and the results are below: […]

[2] = Glass transition temperature (Tg) by differential scanning calorimetry; format: physicochemical
Protocol: The glass transition temperature (Tg) is determined for premixes using differential scanning calorimetry and the results are below:
The glass transition temperatures of the premix compositions are greater than that of dexlansoprazole (amorphous).

D10 [1]: 9.061 μm
D50 [1]: 22.182 μm
D90 [1]: 42.598 μm
Tg (glass transition temperature) [2]: 55.48 °C
SMILES: Cc1c(OCC(F)(F)F)ccnc1C[S@@+]([O-])c1nc2ccccc2[nH]1 [Amorphous dexlansoprazole, (+)-2-[(R)-{[3-methyl-4-(2,2,2-trifluoroethoxy)pyridin-2-yl]methyl}sulfinyl]-1H-benzimidazole]
